{"source": "patent US20100331812A1", "about": "“Pharmaceutical Formulations for Iontophoretic Delivery of an Immunomodulator” (Nitric BioTherapeutics, Inc., priority 2009, published 2010)", "key": {"[1]": {"test": "Skin irritation or redness observed in the in vivo studies", "design": "species or system hairless rat", "conditions": "any of the in vivo studies", "experimental": "(§1) A topical delivery system containing 2% w/w drug formulation (consisting of 20% PEG 400, 10% propylene glycol, 20% Transcutol P, 3% Tween 80 and 10% glycerin; in w/w, final pH 3.6) was employed. The formulation was loaded into a cartridge and iontophoresis (0.2 mA/cm^2, 15 min) was used to deliver the drug into the skin using the hairless rat model as described herein. A passive delivery control was run for comparison. […] Transepidermal water loss (TEWL) measurements were taken to ensure the removal of the stratum corneum."}, "[2]": {"test": "In vivo skin depot formation and desorption, 2% w/w imiquimod formulation with Transcutol P", "design": "species or system hairless rat", "experimental": "In this example the formation and pharmacokinetics of an imiquimod skin depot following iontophoretic delivery in an in vivo hairless rat model were examined.\nas §1"}, "[3]": {"test": "In vitro permeation across hairless rat skin, Franz diffusion cells, with tape stripping and skin extraction", "type": "in vitro ADME", "conditions": "for cumulative amount of drug permeated at 24 hr, passive: passive diffusion", "experimental": "(§2) The effect of iontophoresis on the permeation profile of imiquimod across hairless rat skin in vitro was examined. The solubility of imiquimod was tested in various solvent matrices and a formulation with acceptable solubility was employed for further in vitro and in vivo studies as described herein. The following methods were performed.\nFor the in vitro studies, Franz diffusion cells were employed. Hairless rats were euthanized by carbon dioxide asphyxiation and the abdominal skin area was excised and carefully cleaned to remove excess fat. The skin was then mounted onto Franz diffusion cells. Citrate buffer with 20% ethanol was employed as the receptor buffer and the drug formulation was placed in the donor chamber. For iontophoretic delivery, a silver/silver chloride electrode system was used. […] Samples were taken at predetermined time points and the receptor chamber was replenished with fresh receptor buffer accordingly. At completion, the skin samples were dismounted and washed with the receptor buffer to remove excess drug. Tape stripping and skin extraction studies were performed to quantify the amount of the drug in the skin. All the samples were analyzed via HPLC (C18 column; mobile phase: acetonitrile/50 mM ammonium acetate (70:30); injection volume: 10 μl UV detection at 250 nm)."}, "[4]": {"test": "In vivo skin depot quantification, 0.3% w/w imiquimod formulation", "text": "The effect of iontophoresis on its ability to enhance delivery of 0.3% w/w imiquimod (pH 4.0) formulation in vivo into the stratum corneum and the underlying skin (lower epidermis and dermis) was examined.\nHairless rats were anesthetized using Ketamine and Xylazine. An area on the abdomen was marked and cleaned. Drug formulation was loaded onto an iontophoretic drug cartridge and was secured on the area with tape. For iontophoretic delivery, the cartridge was connected to a current source and a TransQ iontophoretic patch (Iomed) served as the counter electrode. A current density of 0.2 mA/cm^2 was applied for 15 min. At the end of 15 min, the drug loaded cartridges were removed and excess drug on the site was removed. Tape stripping (3M Transpore™ tape) was performed to quantify the drug levels in the stratum corneum. Transepidermal water loss (TEWL) measurements were also taken to ensure the complete removal of the stratum corneum. The rats were then euthanized and the skin samples were excised for further analysis. A skin extraction assay was performed to quantify the drug levels in the underlying skin immediately after 15 min iontophoresis or passive."}, "[5]": {"conditions": "cited from earlier work"}, "[6]": {"test": "Solubility of imiquimod in excipient formulation, by HPLC", "type": "physicochemical", "conditions": "about 3 mg/mL imiquimod in about 30% w/w PEG 400, 10% w/w glycerin, 3% w/w polysorbate 80 at pH 4", "experimental": "as §2\nUsing the above methods, various excipients were tested to prepare a formulation with sufficient solubility for imiquimod."}, "[7]": {"conditions": "in vivo, 2% w/w, 72 hrs after application"}, "[8]": {"conditions": "0.3% w/w, 0.2 mA/cm^2 for 15 min"}, "[9]": {"conditions": "0.3% w/w, pH 4.0, after about 15 min of treatment"}}}
{"smiles": "CC(C)Cn1cnc2c(N)nc3ccccc3c21", "note": "[Imiquimod]", "values": [{"measurement": "irritation or redness of the skin", "setting": "[1]", "value": "not observed"}, {"measurement": "imiquimod delivered to the skin", "setting": "[2]; 15 min iontophoresis at 0.2 mA/cm^2", "value": "approximately 14 ug"}, {"measurement": "total skin drug level, iontophoretic delivery, after 15 min", "setting": "[2]; in vivo, 2% w/w, pH 3.6, 0.2 mA/cm^2, 15 min", "value": "14.19 ± 2.07", "unit": "µg"}, {"measurement": "total skin drug level, passive delivery, after 15 min", "setting": "[2]; in vivo, 2% w/w, pH 3.6, passive, 15 min", "value": "3.26 ± 0.63", "unit": "µg"}, {"measurement": "drug detection in the stratum corneum at 72 hrs, iontophoretic", "setting": "[2]; in vivo, 2% w/w, 72 hrs", "value": "still detected"}, {"measurement": "drug detection in the underlying skin at 72 hrs, iontophoretic", "setting": "[2]; in vivo, 2% w/w, 72 hrs", "value": "No drug was detected"}, {"measurement": "drug detection in the underlying skin at 72 hrs, passive", "setting": "[2]; in vivo, 2% w/w, 72 hrs", "value": "No drug was detected"}, {"measurement": "total skin drug level, iontophoretic delivery, at 72 hrs", "setting": "[2]; [7]", "value": "5.50 ± 2.76", "unit": "µg"}, {"measurement": "total skin drug level, passive delivery, at 72 hrs", "setting": "[2]; [7]", "value": "1.96 ± 0.37", "unit": "µg"}, {"measurement": "cumulative amount of drug permeated at 24 hours, iontophoresis", "setting": "[3]; 0.3% w/w formulation, 0.2 mA/cm^2 for 15 min, then passive diffusion to 24 hr", "value": 22.41, "unit": "μg/cm^2"}, {"measurement": "permeation following iontophoresis", "setting": "[3]; 0.3% w/w formulation, iontophoresis for 15 min, end of 24 hr", "value": "approximately 22 pg/cm"}, {"measurement": "cumulative amount of drug permeated at 24 hr, passive", "setting": "[3]; 0.3% w/w formulation", "value": 2.24, "unit": "μg/cm^2"}, {"measurement": "cumulative amount of drug permeated at 24 hr, passive", "setting": "[3]; 0.3% w/w formulation, listed as imiquimod", "value": "approximately 2 μg/cm^2"}, {"measurement": "amount of drug in the underlying skin, iontophoretic", "setting": "[3]; in vitro, 0.2 mA/cm^2 15 min, end of 24 hr study, skin extraction", "value": 6.31, "unit": "µg"}, {"measurement": "amount of drug in the stratum corneum, iontophoretic", "setting": "[3]; in vitro, 0.2 mA/cm^2 15 min, end of 24 hr study, tape stripping", "value": 7.53, "unit": "µg"}, {"measurement": "amount of drug in the underlying skin, passive", "setting": "[3]; in vitro, end of 24 hr study, skin extraction", "value": 6.27, "unit": "µg"}, {"measurement": "amount of drug in the stratum corneum, passive", "setting": "[3]; in vitro, end of 24 hr study, tape stripping", "value": 1.31, "unit": "µg"}, {"measurement": "drug in the stratum corneum, iontophoresis", "setting": "[4]; [8]", "value": 11.91, "unit": "µg"}, {"measurement": "drug in the underlying tissue, iontophoresis", "setting": "[4]; [8]", "value": 0.591, "unit": "µg"}, {"measurement": "drug detection in the stratum corneum at 72 hr, iontophoresis", "setting": "[4]; 0.3% w/w, 72 hr from treatment", "value": "still detected"}, {"measurement": "drug detection in the stratum corneum at 72 hr, passive", "setting": "[4]; 0.3% w/w, 72 hr from treatment", "value": "no drug was detected"}, {"measurement": "drug detection in the underlying skin at 72 hr, iontophoresis", "setting": "[4]; 0.3% w/w, 72 hr from treatment", "value": "still detected"}, {"measurement": "drug in the underlying tissue at 72 hr, passive", "setting": "[4]; 0.3% w/w, 72 hr from treatment", "value": "small amount of drug was also present"}, {"measurement": "drug level in the stratum corneum, iontophoresis vs passive", "setting": "[4]; 0.3% w/w, after 15 min of treatment", "value": 10, "unit": "fold"}, {"measurement": "drug in the stratum corneum, passive", "setting": "[4]; [9]", "value": 1.07, "unit": "µg"}, {"measurement": "drug in the underlying skin, passive", "setting": "[4]; [9]", "value": 0.40, "unit": "µg"}, {"measurement": "residence time of the depot in the stratum corneum after iontophoresis", "setting": "[4]; iontophoresis", "value": "more than 72 hr"}, {"measurement": "log P", "setting": "[5]", "value": 2.7}, {"measurement": "pKa", "setting": "[5]", "value": 7.3}, {"measurement": "solubility level", "setting": "[6]", "value": "about 0.3%"}]}
